From paper PMC3172300, “Modulation of Catalytic Activity in Multi-Domain Protein Tyrosine Phosphatases” (PLoS ONE, 2011) come the findings set out here.

One assay addresses T1, DLAR D1 (Drosophila melanogaster, UniProt P16621).
T1 construct: DLAR 1448-1746; His tag (pET-15b or pET-22b); made in house; host or cells: E. coli BL21(DE3)
T1 sequence (P16621 1448-1746): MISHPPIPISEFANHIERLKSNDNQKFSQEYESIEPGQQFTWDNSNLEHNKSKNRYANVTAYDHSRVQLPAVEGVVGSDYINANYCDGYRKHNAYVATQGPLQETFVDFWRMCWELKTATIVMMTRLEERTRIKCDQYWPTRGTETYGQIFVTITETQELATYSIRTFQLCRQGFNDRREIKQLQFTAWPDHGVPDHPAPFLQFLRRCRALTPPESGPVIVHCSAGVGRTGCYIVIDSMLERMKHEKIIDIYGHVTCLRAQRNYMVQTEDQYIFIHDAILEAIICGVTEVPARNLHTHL
Nature of the assay: Phosphatase assay using pNPP, DLAR D1. The class given is biochemical. To be noted: CGH buffer pH 6.5, 100 mM NaCl, 2 mM DTT. The method, then:
(§1) Phosphatase activity of the recombinant PTP domains was determined by using para-Nitrophenylphosphate (pNPP), a small molecule generic substrate, as well as phosphotyrosine containing peptides. The pNPP assay was performed as reported previously, with a modification in the buffer composition (25 mM Citrate, Glycine and HEPES (CGH), pH 6.5, 100 mM NaCl and 2 mM DTT). Phosphatase activity with the phosphotyrosine peptides was ascertained by the malachite green reaction as described for PTPs previously. Briefly, the reaction mixture comprised of 0.01 µM protein incubated with increasing concentrations of different peptides in 25 mM citrate buffer pH 6.0, 100 mM NaCl and 2 mM DTT for 15 min at 25°C. The reaction was stopped by the addition of the Biomol Green reagent (Enzo Life Sciences) and the colour developed after 20 min was quantified at 650 nm. For all the assays, kinetic constants for the steady state catalysis were obtained by fitting the reaction curves to the Michaelis-Menten equation using the nonlinear regression module of Sigma plot software (Systat Software, Inc.).
(§2) The tandem PTP domains of PTP99A (PTP99A D1D2) and DLAR (DLAR D1D2) , the individual PTP domains (D1 and D2) as well as the active site mutants were expressed in E. coli and were purified using the protocols described earlier (Figure 1a, Figure S1a, b & c). The biochemical characterization and catalytic activity measurements were performed using pNPP as a substrate. […] Thus the D2 domain appears to have a regulatory role in both RPTPs- decreasing the catalytic activity in the case of DLAR while increasing the catalytic activity in the case of PTP99A (Figure 1b).

For assay [1], the target named is T2, DLAR D1 D2HSS (Drosophila melanogaster, UniProt P16621, C1961S).
T2 construct: DLAR 1448-2029; His tag (pET-15b or pET-22b); made in house; host or cells: E. coli BL21(DE3)
T2 sequence (P16621 1448-2029 C1961S): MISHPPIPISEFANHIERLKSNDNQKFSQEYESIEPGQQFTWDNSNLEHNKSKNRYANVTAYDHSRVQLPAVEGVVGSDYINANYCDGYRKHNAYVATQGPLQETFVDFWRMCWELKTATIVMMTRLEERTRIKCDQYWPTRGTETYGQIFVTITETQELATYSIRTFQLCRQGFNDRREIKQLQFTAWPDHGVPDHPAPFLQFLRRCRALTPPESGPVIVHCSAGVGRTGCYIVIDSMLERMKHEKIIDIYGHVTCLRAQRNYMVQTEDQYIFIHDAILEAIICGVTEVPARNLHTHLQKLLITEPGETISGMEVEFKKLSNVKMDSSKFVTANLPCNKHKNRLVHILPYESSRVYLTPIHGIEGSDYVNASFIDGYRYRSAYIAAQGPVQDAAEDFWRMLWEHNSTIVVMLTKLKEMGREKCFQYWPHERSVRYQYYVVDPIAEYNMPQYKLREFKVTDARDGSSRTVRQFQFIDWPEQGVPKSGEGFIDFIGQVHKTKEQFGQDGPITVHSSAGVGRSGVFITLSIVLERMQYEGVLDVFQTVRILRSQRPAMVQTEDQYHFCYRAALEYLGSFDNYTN
Nature of the assay: Phosphatase assay using pNPP, DLAR D1 D2HSS. To be noted: CGH buffer pH 6.5, 100 mM NaCl, 2 mM DTT. The class given is biochemical. The method, then: as §1, §2

For assay [2], the target named is T2, DLAR D1 D2HSS. Nature of the assay: Surface Plasmon Resonance peptide binding, DLAR D1 D2HSS. The conditions noted are these: two-site model, read-out: ka. The method, then: (§3) The binding of phosphotyrosine peptides to the PTP domains was studied by Surface Plasmon Resonance on a Biacore-2000 instrument (BIAcore, AB). All experiments were conducted at 25°C. DLAR PTP domains were immobilized onto carboxylated dextran CM5 chips (BIAcore AB) using the standard amine coupling procedure as recommended by the manufacturer. Binding and kinetic assays were performed in 10 mM HEPES, pH 8.0, 150 mM NaCl, 10 mM DTT and 3 mM EDTA at a flow rate of 5 µL/min. The peptides were used at concentrations ranging from 50–700 µM. Dissociation was initiated by replacing the analyte with buffer. The association and dissociation curves were monitored for 600 sec. Sensograms were analyzed with BIA-evaluation software version 2 (BIAcore AB). Sensograms for DLAR D1D2, DLAR D1HSSD2 and DLAR D1D2HSS were fitted to two-site binding equations. DLAR D1 and DLAR D2 sensograms were fitted using a single-site binding model.

In a further assay the target is T3, DLAR D2 (Drosophila melanogaster, UniProt P16621).
T3 construct: DLAR 1728-2029; His tag (pET-15b or pET-22b); made in house; host or cells: E. coli BL21(DE3)
T3 sequence (P16621 1728-2029): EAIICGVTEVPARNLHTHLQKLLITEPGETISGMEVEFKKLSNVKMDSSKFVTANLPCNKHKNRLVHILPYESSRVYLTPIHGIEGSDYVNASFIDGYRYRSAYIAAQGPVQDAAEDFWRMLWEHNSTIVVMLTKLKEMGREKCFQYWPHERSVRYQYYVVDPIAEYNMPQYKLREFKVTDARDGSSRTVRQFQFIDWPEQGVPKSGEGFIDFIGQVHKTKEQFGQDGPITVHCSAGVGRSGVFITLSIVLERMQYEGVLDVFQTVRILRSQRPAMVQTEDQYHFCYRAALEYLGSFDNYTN
Nature of the assay: Surface Plasmon Resonance peptide binding, DLAR D2. The conditions noted are these: column second binding site, single-site model. The method, then:
as §3

The next assay addresses T4, DLAR D1D2 (Drosophila melanogaster, UniProt P16621).
T4 construct: DLAR 1448-2029; His tag (pET-15b or pET-22b); made in house; host or cells: E. coli BL21(DE3)
T4 sequence (P16621 1448-2029): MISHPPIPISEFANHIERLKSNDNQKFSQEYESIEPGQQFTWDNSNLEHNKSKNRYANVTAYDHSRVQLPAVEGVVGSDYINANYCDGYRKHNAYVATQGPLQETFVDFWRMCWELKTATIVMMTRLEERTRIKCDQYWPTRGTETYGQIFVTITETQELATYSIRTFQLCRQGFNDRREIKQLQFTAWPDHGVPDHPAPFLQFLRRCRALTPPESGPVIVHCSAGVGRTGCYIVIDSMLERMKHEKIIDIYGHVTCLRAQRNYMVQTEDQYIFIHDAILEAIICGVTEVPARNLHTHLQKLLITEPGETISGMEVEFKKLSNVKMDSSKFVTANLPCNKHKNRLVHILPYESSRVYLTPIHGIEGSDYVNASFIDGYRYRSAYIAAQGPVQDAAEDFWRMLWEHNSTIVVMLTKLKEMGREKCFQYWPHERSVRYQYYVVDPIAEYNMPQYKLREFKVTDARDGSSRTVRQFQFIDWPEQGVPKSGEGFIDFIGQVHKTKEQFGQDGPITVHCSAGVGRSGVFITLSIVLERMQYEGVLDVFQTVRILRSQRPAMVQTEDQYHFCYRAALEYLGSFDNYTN
Nature of the assay: Surface Plasmon Resonance peptide binding, DLAR D1D2. To be noted: two-site model, read-out: ka. The method, then: as §3

Where [3] appears, read: pH 8, SPR Biacore-2000, 25°C, 10 mM HEPES pH 8.0, 150 mM NaCl, 10 mM DTT, 3 mM EDTA, peptides 50–700 µM, first binding site.
[4] abbreviates: pH 8, SPR, 25°C, pH 8.0, second binding site.

The structures appear in SMILES notation. Where “and” joins values, the source holds several entries; their conditions need not be identical. Equal entries are not always repeated. Where two headings read alike, the source gives them in different places. Square brackets hold non-standard residues; d marks the D form. Peptide text beside a SMILES is read from it. pY = N[C@@H](Cc1ccc(OP(=O)(O)O)cc1)C(=O)O

Turning to `O=[N+]([O-])c1ccc(OP(=O)(O)O)cc1` [pNPP, para-Nitrophenylphosphate], the Kcat on DLAR D1 was 16.10 ± 0.27 s⁻¹; at DLAR D1 D2HSS [1], 6.49 ± 0.17 s⁻¹. The values for the Kcat/Km on DLAR D1 and at DLAR D1 D2HSS [1] were 16.03 ± 0.11 x 10^3 sec^-1M^-1 and 1.97 ± 0.10 x 10^3 sec^-1M^-1, respectively. For the same compound, the Vmax at DLAR D1 (Michaelis-Menten fit) was 20.56 µmol/min/mg and 20.56 ± 0.34 µmol/min/mg; at DLAR D1 D2HSS [1] (Michaelis-Menten fit), 5.84 ± 0.15 µmol/min/mg.

As for `CC(C)C[C@H](NC(=O)[C@H](C)NC(=O)CNC(=O)[C@H](Cc1ccc(OP(=O)(O)O)cc1)NC(=O)[C@H](CC(=O)O)NC(=O)[C@@H]1CCCN1C(=O)[C@H](CCC(=O)O)NC(=O)[C@H](C)NC(=O)[C@@H](N)[C@@H](C)O)C(=O)N[C@@H](Cc1ccc(O)cc1)C(=O)N[C@@H](CCC(=O)O)C(=O)O` [Cuticle peptide] (H-TAEPD[pY]GALYE-OH), the kon at DLAR D1 D2HSS [2] (setting [3]) is 51.7 ± 0.61 M⁻¹ s⁻¹; on DLAR D1 D2HSS [2] (setting [4]), 1.37 ± 0.4 M⁻¹ s⁻¹; on DLAR D2 (SPR Biacore-2000, 25°C, 10 mM HEPES pH 8.0, 150 mM NaCl, 10 mM DTT, 3 mM EDTA, peptides 50–700 µM, read-out: ka), 52.8 ± 0.69 M⁻¹ s⁻¹; at DLAR D1D2 (setting [3]), 32.6 ± 1.57 M⁻¹ s⁻¹; on DLAR D1D2 (setting [4]), 16500 ± 2.3e+07 M⁻¹ s⁻¹. The compound further had a Kd on DLAR D2 (SPR, 25°C, pH 8.0) of 104.5 ± 0.06 µM.
